Measurements taken from BindingDB's records for doi:10.1021/acs.jmedchem.8b00159 (China Pharmaceutical University, 2018).
pIC50: −log10 of the molar value.

Assays:
[1] = biological target: T1, Isocitrate dehydrogenase [NADP], mitochondrial (Homo sapiens, UniProt P48735); test: Inhibition of IDH2 R140Q mutant (unknown origin) assessed as reduction in NADPH consumption using alpha-KG as substrate incubated for 60 mins by diaphorase and resazurin dye based assay
T1 sequence (P48735 whole entry): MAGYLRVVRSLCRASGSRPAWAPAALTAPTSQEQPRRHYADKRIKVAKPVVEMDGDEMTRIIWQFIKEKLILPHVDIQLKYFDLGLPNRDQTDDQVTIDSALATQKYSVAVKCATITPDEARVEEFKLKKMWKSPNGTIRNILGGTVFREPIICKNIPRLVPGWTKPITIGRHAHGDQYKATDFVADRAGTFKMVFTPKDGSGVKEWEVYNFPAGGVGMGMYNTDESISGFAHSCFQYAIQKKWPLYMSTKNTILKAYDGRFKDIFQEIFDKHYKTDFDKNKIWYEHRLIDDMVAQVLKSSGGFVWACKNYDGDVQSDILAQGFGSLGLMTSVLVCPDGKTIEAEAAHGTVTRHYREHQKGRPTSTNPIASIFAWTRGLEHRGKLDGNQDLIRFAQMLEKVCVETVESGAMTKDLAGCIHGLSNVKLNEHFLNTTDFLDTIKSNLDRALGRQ

[2] = biological target: T2, Isocitrate dehydrogenase [NADP] cytoplasmic (Homo sapiens, UniProt O75874); test: Inhibition of IDH1 R132H mutant (unknown origin) assessed as reduction in NADPH consumption using alpha-KG as substrate incubated for 60 mins by diaphorase and resazurin dye based assay
Target sequence in this assay (O75874 2-414 R132H limits assumed): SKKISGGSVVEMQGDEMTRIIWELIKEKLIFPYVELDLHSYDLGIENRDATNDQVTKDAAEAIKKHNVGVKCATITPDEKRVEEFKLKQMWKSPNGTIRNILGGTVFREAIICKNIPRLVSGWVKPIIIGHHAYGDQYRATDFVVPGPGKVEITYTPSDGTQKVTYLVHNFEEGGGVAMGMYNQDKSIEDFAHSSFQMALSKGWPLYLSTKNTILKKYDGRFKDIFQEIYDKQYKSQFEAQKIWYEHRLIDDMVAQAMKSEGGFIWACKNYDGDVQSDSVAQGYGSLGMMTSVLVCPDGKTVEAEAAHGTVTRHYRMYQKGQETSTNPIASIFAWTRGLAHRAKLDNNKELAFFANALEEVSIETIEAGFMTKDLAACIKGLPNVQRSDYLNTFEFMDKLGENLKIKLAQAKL

[3] = biological target: T2, Isocitrate dehydrogenase [NADP] cytoplasmic; test: Inhibition of IDH1 R132C mutant (unknown origin) assessed as reduction in NADPH consumption using alpha-KG as substrate incubated for 60 mins by diaphorase and resazurin dye based assay
Target sequence in this assay (O75874 2-414 R132C limits assumed): as the sequence (O75874 2-414 R132H limits assumed) above, with H131C counted along it

pIC50 [1]	pIC50 [2]	pIC50 [3]	Structure (SMILES)
> 7.30	> 7.30	> 7.30	CC(F)(F)c1cccc(-c2nc(NC3CCC(F)(F)C3)nc(NC3CCC(F)(F)C3)n2)n1 (configuration not stated) [US10028961, Compound 105]
> 7.30	> 7.30	> 7.30	C[C@@H](Nc1nc(N[C@H](C)C2CC2)nc(-n2ccc(C(F)(F)F)n2)n1)C1CC1 [US10028961, Compound 121]
> 7.30	> 7.30	> 7.30	FC1(F)CC(Nc2nc(NC3CC(F)(F)C3)nc(-c3nc(C(F)(F)F)cs3)n2)C1 [US10028961, Compound 128]
> 7.30	> 7.30	> 7.30	FC1(F)CCC(Nc2nc(NC3CCC(F)(F)CC3)nc(-c3cncc(C(F)(F)F)n3)n2)CC1 [US10028961, Compound 160]
